Results from publication PMC6152131, “Pharmacokinetic Study of Biotransformation Products from an Anxiolytic Fraction of Tilia americana” (Molecules : A Journal of Synthetic Chemistry and Natural …, 2017).

How the values were obtained:
[1] = Pharmacokinetic analysis, two-compartment model (PKSolver); type: in vivo, ICR mice
Method: The data shown in Table 2 were applied to the program PKSolver. After a single oral administration of 200 mg/kg of the anxiolitic fraction of T. americana, the behavior of the concentration-time data allowed us to determine the main pharmacokinetic parameters under a two-compartment model (Table 3), and the same program provided the graphical behavior of the variables and the adjustment to the two-compartment model.
To evaluate the suitability of the assay for the pharmacokinetic studies, 200 mg/kg of the active fraction was orally administered to the animals. Ten animals were used in each group at different times (0, 5, 10, 15, 30, 60, 120, 240, 480, 720, and 1440 min). Pharmacokinetic calculations were performed using the observed data. All data was subsequently processed using the PKSolver add-in program for Microsoft Excel written in Visual Basic for Applications. All values obtained were expressed in mean ± standard deviation.
For the pharmacokinetic assay, the selection was made either from a one-compartment or a two-compartment model, with the use of both the Akaike information criterion (AIC) and the Schwarz criterion (SC). Using these two criteria, one can select which model is more suited to being adjusted, to the point where it reaches the lowest values of the AIC or SC criteria, which means that the chosen model is more parsimonious (less parameters required) and best fits the data (low error prediction).

[2] = Plasma concentration after a single oral dose of the anxiolytic fraction (HPLC); type: in vivo, ICR mice; conditions: mouse, plasma, ICR mice, n = 10
Method in brief: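 Animals dosed orally with 200 mg/kg of active fraction; retro-orbital blood taken from separate groups of ten at 0–1440 min. Lyophilized plasma extracted in methanol and analysed by RP-18 HPLC with diode-array detection at 220 nm against a calibration curve; PK parameters from observed data, mean ± SD.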

[3] = Stability of flavonoids and biotransformation products in mouse plasma under different handling conditions; type: in vitro ADME, mice; conditions: for Accuracy Bias 0 h / Observed Conc. 0 h / Accuracy Bias 8 h / Observed Conc. 8 h / Accuracy Bias 24 h / Observed Conc. 24 h: room temperature (25 °C); for Observed Conc. 0 h / Observed Conc. 8 h / Observed Conc. 24 h / Observed Conc. Autosampler (4 °C; 8 h) / Observed Conc. Long-term (−70 °C; 1 month): n = 6; for Accuracy Bias Autosampler (4 °C; 8 h) / Accuracy Bias Long-term (−70°C; 1 month) / Observed Conc. Autosampler (4 °C; 8 h) / Observed Conc. Long-term (−70 °C; 1 month): storage stability
Method in brief: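 Mouse plasma QC samples containing the flavonoids and their biotransformation products were tested for stability across storage and handling conditions, including long-term, autosampler and bench-top tests. Samples were extracted with methanol, filtered, and analyzed by HPLC on an RP-18e column with acetonitrile–water (55:45) at 1 mL/min and detection at λ = 220 nm. Results were compared against fresh QC samples; stability required deviation below 15%.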

[4] = mouse, oral 200 mg/kg anxiolytic fraction, ICR mice plasma, two-compartment model
[5] = oral 200 mg/kg anxiolytic fraction, ICR mice plasma, two-compartment model
[6] = oral 200 mg/kg anxiolytic fraction, ICR mice plasma, two-compartment model, n = 10
[7] = high nominal conc. (7.00; 44.37; 4.50; 31.25 µg/mL)
[8] = low nominal conc. (1.75; 11.02; 1.12; 1.95 µg/mL)
[9] = medium nominal conc. (3.50; 22.18; 2.24; 7.81 µg/mL)

Structure (SMILES): O=C(O)Cc1cccc(O)c1 [m-HPAA, meta-hydroxyphenylacetic acid]
- ka smaller than the ka of DOPAC ([1]; mouse, in vivo): 79%
- AUC(0-inf) [1, 4]: 124 µg·h/mL
- Cmax [1, 4]: 5.76 µg/mL
- Tmax [1, 4]: 0.235 h
- AUC(0-t) ([1]; mouse, oral 200 mg/kg anxiolytic fraction, ICR mice plasma, two-compartment model, read-out: AUC0→1440 (converted)): 61.4 µg·h/mL
- MRT ([1]; mouse, oral 200 mg/kg anxiolytic fraction, ICR mice plasma, two-compartment model, read-out: MRT (mean residence time) (converted)): 35.4 h
- k el ([1]; mouse, oral 200 mg/kg anxiolytic fraction, ICR mice plasma, two-compartment model, read-out: k10 (apparent first-order elimination rate constant from the central compartment) (converted)): 1.5e-05 s⁻¹
- half-life ([1]; mouse, oral 200 mg/kg anxiolytic fraction, ICR mice plasma, two-compartment model, read-out: t1/2β): 25 h
- CL/F (apparent clearance) [1, 5]: 0.026 (mg/Kg)/(μg/mL)/min
- V/F (apparent volume of distribution) [1, 5]: 30.45 (mg/Kg)/(µg/mL)
- k12 (transfer rate constant central to peripheral compartment) [1, 5]: 0.009 min⁻¹
- k21 (transfer rate constant peripheral to central compartment) [1, 5]: 0.01 min⁻¹
- ka (apparent first-order absorption rate constant) [1, 5]: 0.24 min⁻¹
- t1/2ka (absorption half time) [1, 5]: 2.84 min
- t1/2α [1, 5]: 0.5847 h
- α [1, 5]: 0.02 min⁻¹
- β [1, 5]: 0.0005 min⁻¹
- A (plasma concentration coefficient, central compartment) [1, 6]: 3.49 µg/mL
- B (plasma concentration coefficient, peripheral compartment) [1, 6]: 3.36 µg/mL
- index: relation between rate constants of k12 with respect to k21 ([1]; two-compartment model): 0.9
- concentration at 5 min ([2]; 5 min after single oral dose of 200 mg/kg of the anxiolytic fraction, ND = not detected): 4.67 ± 0.27 µg/mL
- concentration at 10 min ([2]; 10 min after single oral dose of 200 mg/kg of the anxiolytic fraction): 5.06 ± 0.22 µg/mL
- concentration at 15 min ([2]; 15 min after single oral dose of 200 mg/kg of the anxiolytic fraction): 4.75 ± 0.29 µg/mL
- concentration at 30 min ([2]; 30 min after single oral dose of 200 mg/kg of the anxiolytic fraction): 4.52 ± 0.28 µg/mL
- concentration at 60 min ([2]; 60 min after single oral dose of 200 mg/kg of the anxiolytic fraction): 4.29 ± 0.13 µg/mL
- concentration at 120 min ([2]; 120 min after single oral dose of 200 mg/kg of the anxiolytic fraction): 4.17 ± 0.33 µg/mL
- concentration at 240 min ([2]; 240 min after single oral dose of 200 mg/kg of the anxiolytic fraction): 4.11 ± 0.23 µg/mL
- concentration at 480 min ([2]; 480 min after single oral dose of 200 mg/kg of the anxiolytic fraction): 4.04 ± 0.25 µg/mL
- concentration at 720 min ([2]; 720 min after single oral dose of 200 mg/kg of the anxiolytic fraction): 3.94 ± 0.19 µg/mL
- concentration at 1440 min ([2]; 1440 min after single oral dose of 200 mg/kg of the anxiolytic fraction): 3.79 ± 0.28 µg/mL
- Accuracy Bias 0 h ([3]; high nominal conc.): 1.88%
- Observed Conc. 0 h ([3]; high nominal conc. (rutin 7.00; quercetin glucoside, quercitrin, tiliroside 44.37; kaempferol 4.50; m-HPAA, p-HPAA, DOPAC 31.25 µg/mL)): 31.40 ± 0.10 µg/mL
- Accuracy Bias 0 h ([3]; low nominal conc.): 0.47%
- Observed Conc. 0 h ([3]; low nominal conc. (rutin 1.75; quercetin glucoside, quercitrin, tiliroside 11.02; kaempferol 1.12; m-HPAA, p-HPAA, DOPAC 1.95 µg/mL)): 1.91 ± 0.2 µg/mL
- Accuracy Bias 0 h ([3]; medium nominal conc.): 0.13%
- Observed Conc. 0 h ([3]; medium nominal conc. (rutin 3.50; quercetin glucoside, quercitrin, tiliroside 22.18; kaempferol 2.24; m-HPAA, p-HPAA, DOPAC 7.81 µg/mL)): 7.80 ± 0.01 µg/mL
- Accuracy Bias 8 h ([3]; high nominal conc.): 0.90%
- Observed Conc. 8 h [3, 7]: 31.53 ± 0.19 µg/mL
- Accuracy Bias 8 h ([3]; low nominal conc.): 2.23%
- Observed Conc. 8 h [3, 8]: 1.91 ± 0.03 µg/mL
- Accuracy Bias 8 h ([3]; medium nominal conc.): 2.18%
- Observed Conc. 8 h [3, 9]: 7.98 ± 0.12 µg/mL
- Accuracy Bias 24 h ([3]; high nominal conc.): 0.30%
- Observed Conc. 24 h [3, 7]: 31.34 ± 0.07 µg/mL
- Accuracy Bias 24 h ([3]; low nominal conc.): 2.73%
- Observed Conc. 24 h [3, 8]: 1.90 ± 0.04 µg/mL
- Accuracy Bias 24 h ([3]; medium nominal conc.): 0.09%
- Observed Conc. 24 h [3, 9]: 7.82 ± 0.01 µg/mL
- Accuracy Bias Autosampler (4 °C; 8 h) ([3]; high nominal conc.): 2.73%
- Accuracy Bias Long-term (−70°C; 1 month) ([3]; high nominal conc.): 2.23%
- Observed Conc. Autosampler (4 °C; 8 h) [3, 7]: 31.34 ± 0.07 µg/mL
- Observed Conc. Long-term (−70 °C; 1 month) [3, 7]: 31.20 ± 0.19 µg/mL
- Accuracy Bias Autosampler (4 °C; 8 h) ([3]; low nominal conc.): 0.09%
- Accuracy Bias Long-term (−70°C; 1 month) ([3]; low nominal conc.): 0.90%
- Observed Conc. Autosampler (4 °C; 8 h) [3, 8]: 1.93 ± 0.04 µg/mL
- Observed Conc. Long-term (−70 °C; 1 month) [3, 8]: 1.92 ± 0.03 µg/mL
- Accuracy Bias Autosampler (4 °C; 8 h) ([3]; medium nominal conc.): 0.30%
- Accuracy Bias Long-term (−70°C; 1 month) ([3]; medium nominal conc.): 2.18%
- Observed Conc. Autosampler (4 °C; 8 h) [3, 9]: 7.82 ± 0.01 µg/mL
- Observed Conc. Long-term (−70 °C; 1 month) [3, 9]: 7.80 ± 0.12 µg/mL
